{"source": "patent US20030162777A1", "about": "“Novel N-acylated heterocycles” (Recordati S.A., priority 2001, published 2003)", "data": [{"target": "T1, human 5HT1A-serotonergic receptor (Homo sapiens, UniProt P08908)", "T1 construct": "expressed in transfected cells; host or cells: HeLa (human cell line), stably transfected; cell membranes used", "T1 sequence (P08908 1-422)": "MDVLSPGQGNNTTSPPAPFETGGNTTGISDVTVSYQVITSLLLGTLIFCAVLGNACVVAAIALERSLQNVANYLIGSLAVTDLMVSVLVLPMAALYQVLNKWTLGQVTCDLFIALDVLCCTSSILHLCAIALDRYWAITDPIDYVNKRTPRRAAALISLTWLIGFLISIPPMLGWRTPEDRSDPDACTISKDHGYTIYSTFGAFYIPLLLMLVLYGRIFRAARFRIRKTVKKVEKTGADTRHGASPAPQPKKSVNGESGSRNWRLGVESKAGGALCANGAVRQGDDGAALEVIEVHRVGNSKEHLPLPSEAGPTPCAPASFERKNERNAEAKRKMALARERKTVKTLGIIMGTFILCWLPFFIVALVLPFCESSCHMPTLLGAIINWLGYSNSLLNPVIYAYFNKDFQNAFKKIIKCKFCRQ", "test": "Radioligand binding to recombinant 5-HT1A receptors", "details": "[3H]8-OH-DPAT 1 nM, membranes of HeLa cells with human 5-HT1A receptor; Ki from IC50 by Cheng & Prusoff; read-out: Binding affinity for 5HT1A receptors, Ki", "summary_of_the_method": "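Displacement of 1 nM [3H]8-OH-DPAT (30 min, 30 °C, Tris-HCl pH 7.4 with MgCl2 and pargyline) from recombinant human 5-HT1A in transfected HeLa membranes, stopped by filtration. Specific binding defined against 10 μM 5-HT; IC50 by nonlinear fitting, then Ki by Cheng–Prusoff.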", "units": {"Ki": "nM"}, "values": [{"molecule": "COc1ccc(C(=O)N2c3ccccc3CCC2CN2CCN(c3ccc(F)cc3OC)CC2)cc1", "note": "(stereo not drawn) [Example 74A5, 1-(4-Fluoro-2-methoxyphenyl)-4-[1-(4-methoxybenzoyl)-1,2,3,4-tetrahydroquinolin-2-ylmethy]piperazine]", "Ki": 2}, {"molecule": "O=C(C1CCC1)N1c2ccccc2CCC1CN1CCN(c2cccc3c2OCCO3)CC1", "note": "(stereo not drawn) [Example 76A8]", "Ki": 19.2}, {"molecule": "CN(C)c1ccc(C(=O)N2c3ccccc3CCC2CN2CCN(c3cccc4[nH]ccc34)CC2)cc1", "note": "(stereo not drawn) [Example 68A1, 1-[1-(4-Dimethylaminobenzoyl)-1,2,3,4-tetrahydroquinoline-2-ylmethyl]-4-(4-indolyl)piperazine]", "Ki": 23.9}, {"molecule": "COc1cccc(C(=O)N2c3ccccc3CCC2CN2CCN(c3cccc4[nH]ccc34)CC2)c1", "note": "(stereo not drawn) [Example 68A67, 1-(4-Indolyl)-4-[1-(3-methoxybenzoyl)-1,2,3,4-tetrahydroquinoline-2-ylmethyl]piperazine]", "Ki": 9.1}, {"molecule": "O=C(C1CCCCC1)N1c2ccccc2CCC1CN1CCC(c2ccccc2C(F)(F)F)CC1", "note": "(stereo not drawn) [Example 72A81, 1-(1-Cyclohexanecarbonyl-1,2,3,4-tetrahydroquinolin-2-ylmethyl)-4-(2-trifluoromethylphenyl)piperidine]", "Ki": 25.5}, {"molecule": "O=C(Cc1ccsc1)N1c2ccccc2CCC1CN1CCN(c2nccc3ccccc23)CC1", "note": "(stereo not drawn) [Example 75A9, 1-(1-Isoquinolinyl)-4-[1-(3-thienyacetyl)-1,2,3,4-tetrahydroquinolin-2-ylmethyl]piperazine]", "Ki": 16.1}, {"molecule": "O=C(C1CCCCC1)N1c2ccccc2CCC1CN1CCN(c2cccc(O)c2)CC1", "note": "(stereo not drawn) [Example 72A17, 1-(1-Cyclohexanecarbonyl-1,2,3,4-tetrahydroquinolin-2-ylmethyl)-4-(3-hydroxyphenyl)piperazine]", "Ki": 38.5}, {"molecule": "Cn1cc(C(=O)N2c3ccccc3CCC2CN2CCN(c3cccc4[nH]ccc34)CC2)c2ccccc21", "note": "(stereo not drawn) [Example 68A47, 1-(4-Indolyl)-4-[1-(1-methyl-3-indolylcarbonyl)-1,2,3,4-tetrahydroquinoline-2-ylmethyl]piperazine]", "Ki": 17.1}, {"molecule": "Cn1ccc2c(N3CCN(CC4CCc5ccccc5N4C(=O)C4CCCCC4)CC3)cccc21", "note": "(stereo not drawn) [Example 15, 1-(1-Cyclohexanecarbonyl-1,2,3,4-tetrahydroquinoline-2-ylmethyl)-4-(1-methyl-4-indolyl)piperazine]", "Ki": 8.9}, {"molecule": "O=S(=O)(c1cccs1)N1c2ccccc2CCC1CN1CCN(c2cccc3[nH]ccc23)CC1", "note": "(stereo not drawn) [Example 70A1, 1-(4-Indolyl)-4-[1-(2-thienylsulphonyl)-1,2,3,4-tetrahydroquinoline-2-ylmethyl]piperazine]", "Ki": 18.8}, {"molecule": "COc1ccc(C(=O)N2c3ccccc3CCC2CN2CCN(c3cccc4c3OCCO4)CC2)cc1", "note": "(stereo not drawn) [Example 76A4, 1-(2,3-Dihydrobenzo[1,4]dioxin-5-yl)-4-[1-(4-methoxybenzoyl)-1,2,3,4-tetrahydroquinolin-2-ylmethyl]piperazine]", "Ki": 3.9}, {"molecule": "O=C(C1CCCCC1)N1c2ccccc2CCC1CN1CCN(c2ccc(Cl)cc2Cl)CC1", "note": "(stereo not drawn) [Example 35A9, 1-(1-Cyclohexanecarbonyl-1,2,3,4-tetrahydroquinoline-2-ylmethyl)-4-(2,4-dichlorophenyl)piperazine]", "Ki": 39.6}, {"molecule": "O=C(C1CCCCC1)N1c2ccccc2CCC1CN1CCN(c2cccc3nonc23)CC1", "note": "(stereo not drawn) [Example 60A8, 1-[4-(2,1,3-Benzoxadiazolyl)]-4-(1-cyclohexanecarbonyl-1,2,3,4-tetrahydroquinoline-2-ylmethyl)piperazine]", "Ki": 12.2}, {"molecule": "O=C(Cc1ccccc1C(F)(F)F)N1c2ccccc2CCC1CN1CCN(c2cccc3[nH]ccc23)CC1", "note": "(stereo not drawn) [Example 68A64, 1-(4-Indolyl)-4-[1-[2-(2-trifluoromethylphenylacetyl)]-1,2,3,4-tetrahydroquinoline-2-ylmethyl]piperazine]", "Ki": 13.4}, {"molecule": "CS(=O)(=O)N(CC(=O)N1c2ccccc2CCC1CN1CCN(c2cccc3[nH]ccc23)CC1)Cc1ccccc1", "note": "(stereo not drawn) [Example 68A71, 1-[1-[2-(N-Benzyl-N-methanesulphonylamino)acetyl]-1,2,3,4-tetrahydroquinoline-2-ylmethyl]-4-(4-indolyl)piperazine]", "Ki": 23.5}, {"molecule": "O=C(C1CCCCC1)N1c2ccc(O)cc2CCC1CN1CCN(c2cccc3[nH]ccc23)CC1", "note": "(stereo not drawn) [Example 50, 1-(1-Cyclohexanecarbonyl-6-hydroxy-1,2,3,4-tetrahydroquinoline-2-ylmethyl)-4-(4-indolyl)piperazine]", "Ki": 41}, {"molecule": "CC(C)C(=O)N1c2ccccc2CCC1CN1CCN(c2cccc3[nH]ccc23)CC1", "note": "(stereo not drawn) [Example 68A9, 1-(4-Indolyl)-4-[1-(2-methylpropionyl)-1,2,3,4-tetrahydroquinoline-2-ylmethyl]piperazine]", "Ki": 24.6}, {"molecule": "O=C(c1ccc(C(F)(F)F)cc1)N1c2ccccc2CCC1CN1CCN(c2cccc3[nH]ccc23)CC1", "note": "(stereo not drawn) [Example 68A23, 1-(4-Indolyl)-4-[1-(4-trifluoromethylbenzoyl)-1,2,3,4-tetrahydroquinoline-2-ylmethyl]piperazine]", "Ki": 42.8}, {"molecule": "Cc1ccc(C(=O)N2c3ccccc3CCC2CN2CCN(c3cccc4[nH]ccc34)CC2)cc1", "note": "(stereo not drawn) [Example 68A70, 1-(4-Indolyl)-4-[1-(4-methylbenzoyl)-1,2,3,4-tetrahydroquinoline-2-ylmethyl]piperazine]", "Ki": 5.3}, {"molecule": "COc1cc(F)ccc1N1CCN(CC2CCc3cccc(C)c3N2C(=O)C2CCCCC2)CC1", "note": "(stereo not drawn) [Example 67, 1-(1-Cyclohexanecarbonyl-8-methyl-1,2,3,4-tetrahydroquinoline-2-ylmethyl)-4-(4-fluoro-2-methoxyphenyl)piperazine]", "Ki": 29.4}, {"molecule": "O=C(Cc1ccc2c(c1)OCO2)N1c2ccccc2CCC1CN1CCN(c2cccc3[nH]ccc23)CC1", "note": "(stereo not drawn) [Example 68A49, 1-[1-[2-(5-Benzo[1,3]dioxolyl)acetyl]-1,2,3,4-tetrahydroquinoline-2-ylmethyl]-4-(4-indolyl)piperazine]", "Ki": 18.7}, {"molecule": "O=C(NCc1ccccc1)N1c2ccccc2CCC1CN1CCN(c2cccc3[nH]ccc23)CC1", "note": "(stereo not drawn) [Example 69A9, 1-(1-Benzylaminocarbonyl-1,2,3,4-tetrahydroquinoline-2-ylmethyl)-4-(4-indolyl)piperazine]", "Ki": 25.5}, {"molecule": "O=C(CCc1ccccc1)N1c2ccccc2CCC1CN1CCN(c2cccc3[nH]ccc23)CC1", "note": "(stereo not drawn) [Example 68A24, 1-(4-Indolyl)-4-[1-(3-phenylpropionyl)-1,2,3,4-tetrahydroquinoline-2-ylmethyl]piperazine]", "Ki": 32.9}, {"molecule": "COc1cc(F)ccc1N1CCN(CC2CCc3cc(C)ccc3N2C(=O)C2CCCCCC2)CC1", "note": "(stereo not drawn) [Example 73A13, 1-(1-Cycloheptanecarbonyl-1,2,3,4-tetrahydroquinolin-6-methyl-2-ylmethyl)-4-(4-fluoro-2-methoxyphenyl)piperazine]", "Ki": 8.1}, {"molecule": "O=C(c1c(F)cccc1F)N1c2ccccc2CCC1CN1CCN(c2cccc3[nH]ccc23)CC1", "note": "(stereo not drawn) [Example 68A28, 1-[1-(2,6-Difluorobenzoyl)-1,2,3,4-tetrahydroquinoline-2-ylmethyl]-4-(4-indolyl)piperazine]", "Ki": 34.4}, {"molecule": "CCc1ccccc1N1CCN(CC2CCc3ccccc3N2C(=O)C2CCCCC2)CC1", "note": "(stereo not drawn) [Example 72A11, 1-(1-Cyclohexanecarbonyl-1,2,3,4-tetrahydroquinolin-2-ylmethyl)-4-(2-ethylphenyl)piperazine]", "Ki": 7.7}, {"molecule": "O=C(Nc1ccc(F)cc1)N1c2ccccc2CCC1CN1CCN(c2cccc3[nH]ccc23)CC1", "note": "(stereo not drawn) [Example 69A2, 1-[1-(4-Fluorophenylaminocarbonyl)-1,2,3,4-tetrahydroquinoline-2-ylmethyl)-4-(4-indolyl)piperazine]", "Ki": 24}, {"molecule": "CC(C)(C)OC(=O)N1CCC(C(=O)N2c3ccccc3CCC2CN2CCN(c3cccc4[nH]ccc34)CC2)CC1", "note": "(stereo not drawn) [Example 71A3, 1-[1-[4-(1-tert-Butoxycarbonylpiperidino)carbonyl]-1,2,3,4-tetrahydroquinoline-2-ylmethyl]-4-(4-indolyl)piperazine]", "Ki": 40.6}, {"molecule": "COc1cccc(N2CCN(CC3CCc4ccccc4N3C(=O)C3CCCCC3)CC2)c1", "note": "(stereo not drawn) [Example 72A25, 1-(1-Cyclohexanecarbonyl-1,2,3,4-tetrahydroquinolin-2-ylmethyl)-4-(3-methoxyphenyl)piperazine]", "Ki": 15.3}, {"molecule": "O=C(COc1ccccc1Cl)N1c2ccccc2CCC1CN1CCN(c2cccc3[nH]ccc23)CC1", "note": "(stereo not drawn) [Example 68A50, 1-[1-[2-(2-Chlorophenoxy)acetyl]-1,2,3,4-tetrahydroquinoline-2-ylmethyl]-4-(4-indolyl)piperazine]", "Ki": 27.3}, {"molecule": "O=C(CCc1cccnc1)N1c2ccccc2CCC1CN1CCN(c2cccc3[nH]ccc23)CC1", "note": "(stereo not drawn) [Example 68A41, 1-(4-Indolyl)-4-[1-[3-(3-pyridylpropionyl)]-1,2,3,4-tetrahydroquinoline-2-ylmethyl]piperazine]", "Ki": 49.1}, {"molecule": "CC(C)(C)NC(=O)N1c2ccccc2CCC1CN1CCN(c2cccc3c2OCCO3)CC1", "note": "(stereo not drawn) [Example 76A13, 1-(2,3-Dihydrobenzo[1,4]dioxin-5-yl)-4-[1-(1,1-dimethylethylaminocarbonyl)-1,2,3,4-tetrahydroquinolin-2-ylmethyl]piperazine]", "Ki": 2.3}, {"molecule": "O=C(c1ccccc1Cl)N1c2ccccc2CCC1CN1CCN(c2cccc3[nH]ccc23)CC1", "note": "(stereo not drawn) [Example 68A4, 1-[1-(2-Chlorobenzoyl)-1,2,3,4-tetrahydroquinoline-2-ylmethyl]-4-(4-indolyl)piperazine]", "Ki": 4.7}]}]}
